Experimental data taken from PubChem BioAssay AID2060884 (Molecular Pharmacology Branch, DTP, NCI, 2025).
Blank lines part the entries; values can stand above or below the compound they belong to.

System: NCI-H929 complex spheroids, viability % test/control
Experiment: Anticancer human tumor NCI-H929 cell line growth inhibition [RAS];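 also: compound exposure lasted seven days before viability was read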;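 as to viability, T/C: 100% = DMSO vehicle control viability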
Conditions: for IC50: curve of first compound; for viability, T/C: stronger effect = lower value
Method in brief: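 Multi-cell-type spheroids: tumor cells plus HUVEC endothelial cells and mesenchymal stem cells. RAS-pathway inhibitors were combined with targeted agents, each dosed in half-log steps down from clinical Cmax, or from 10 microM when Cmax was unknown.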

IC50 (second compound 0.000949 µM): 0.00138 µM
IC50 (second compound 0.003 µM): 0.00145 µM
IC50 (second compound 0.00949 µM): 0.00134 µM
IC50 (second compound 0.03 µM): 0.0014 µM
IC50 (second compound 0.0949 µM): 0.00122 µM
IC50 (second compound 0.3 µM): < 0.000949 µM
SMILES: CCc1c2c(nc3ccc(O)cc13)-c1cc3c(c(=O)n1C2)COC(=O)[C@]3(O)CC + CCn1c(-c2cccnc2C(C)OC)c2c3cc(ccc31)N1CCOC(CC(NC(=O)C(C(C)C)N(C)C(=O)C3(F)CCN(C(=O)C#CC(C)(C)N(C)C)CC3)C(=O)N3CCCC(N3)C(=O)OCC(C)(C)C2)C1
viability, T/C (second compound 0.000949 µM, first compound 0.000949 µM): 72.7%
viability, T/C (second compound 0.000949 µM, first compound 0.003 µM): 2.65%
viability, T/C (second compound 0.000949 µM, first compound 0.00949 µM): 1.03%
viability, T/C (second compound 0.000949 µM, first compound 0.03 µM): 1.2%
viability, T/C (second compound 0.000949 µM, first compound 0.0949 µM): 1.15%
viability, T/C (second compound 0.000949 µM, first compound 0.3 µM): 0.54%
viability, T/C (second compound 0.003 µM, first compound 0.000949 µM): 77%
viability, T/C (second compound 0.003 µM, first compound 0.003 µM): 3.29%
viability, T/C (second compound 0.003 µM, first compound 0.00949 µM): 1.02%
viability, T/C (second compound 0.003 µM, first compound 0.03 µM): 1.1%
viability, T/C (second compound 0.003 µM, first compound 0.0949 µM): 1.07%
viability, T/C (second compound 0.003 µM, first compound 0.3 µM): 0.54%
viability, T/C (second compound 0.00949 µM, first compound 0.000949 µM): 70.4%
viability, T/C (second compound 0.00949 µM, first compound 0.003 µM): 2.82%
viability, T/C (second compound 0.00949 µM, first compound 0.00949 µM): 0.87%
viability, T/C (second compound 0.00949 µM, first compound 0.03 µM): 1.06%
viability, T/C (second compound 0.00949 µM, first compound 0.0949 µM): 1.05%
viability, T/C (second compound 0.00949 µM, first compound 0.3 µM): 0.47%
viability, T/C (second compound 0.03 µM, first compound 0.000949 µM): 74.8%
viability, T/C (second compound 0.03 µM, first compound 0.003 µM): 1.48%
viability, T/C (second compound 0.03 µM, first compound 0.00949 µM): 0.74%
viability, T/C (second compound 0.03 µM, first compound 0.03 µM): 0.96%
viability, T/C (second compound 0.03 µM, first compound 0.0949 µM): 0.84%
viability, T/C (second compound 0.03 µM, first compound 0.3 µM): 0.42%
viability, T/C (second compound 0.0949 µM, first compound 0.000949 µM): 63.8%
viability, T/C (second compound 0.0949 µM, first compound 0.003 µM): 1.38%
viability, T/C (second compound 0.0949 µM, first compound 0.00949 µM): 0.98%
viability, T/C (second compound 0.0949 µM, first compound 0.03 µM): 0.71%
viability, T/C (second compound 0.0949 µM, first compound 0.0949 µM): 0.87%
viability, T/C (second compound 0.0949 µM, first compound 0.3 µM): 0.47%
viability, T/C (second compound 0.3 µM, first compound 0.000949 µM): 48.2%
viability, T/C (second compound 0.3 µM, first compound 0.003 µM): 1.54%
viability, T/C (second compound 0.3 µM, first compound 0.00949 µM): 0.75%
viability, T/C (second compound 0.3 µM, first compound 0.03 µM): 0.83%
viability, T/C (second compound 0.3 µM, first compound 0.0949 µM): 0.84%
viability, T/C (second compound 0.3 µM, first compound 0.3 µM): 0.44%

IC50 (second compound 0.0316 µM): > 10 µM
IC50 (second compound 0.1 µM): > 10 µM
IC50 (second compound 0.316 µM): > 10 µM
IC50 (second compound 1 µM): > 10 µM
IC50 (second compound 3.16 µM): > 10 µM
IC50 (second compound 10 µM): > 10 µM
SMILES: C[C@@H](NC(=O)c1ncnc(N)c1Cl)c1ncc(C(=O)Nc2cc(C(F)(F)F)c(Cl)cn2)s1 + C#Cc1c(F)ccc2cc(O)cc(-c3ncc4c(N5CC6CCC(C5)N6)nc(OCC56CCCN5CC(F)C6)nc4c3F)c12
viability, T/C (second compound 0.0316 µM, first compound 0.0316 µM): 91.7%
viability, T/C (second compound 0.0316 µM, first compound 0.1 µM): 89%
viability, T/C (second compound 0.0316 µM, first compound 0.316 µM): 93.6%
viability, T/C (second compound 0.0316 µM, first compound 1 µM): 79.9%
viability, T/C (second compound 0.0316 µM, first compound 3.16 µM): 92.2%
viability, T/C (second compound 0.0316 µM, first compound 10 µM): 108%
viability, T/C (second compound 0.1 µM, first compound 0.0316 µM): 96.2%
viability, T/C (second compound 0.1 µM, first compound 0.1 µM): 88.3%
viability, T/C (second compound 0.1 µM, first compound 0.316 µM): 89.4%
viability, T/C (second compound 0.1 µM, first compound 1 µM): 80.7%
viability, T/C (second compound 0.1 µM, first compound 3.16 µM): 95.1%
viability, T/C (second compound 0.1 µM, first compound 10 µM): 110%
viability, T/C (second compound 0.316 µM, first compound 0.0316 µM): 95.3%
viability, T/C (second compound 0.316 µM, first compound 0.1 µM): 94%
viability, T/C (second compound 0.316 µM, first compound 0.316 µM): 91.5%
viability, T/C (second compound 0.316 µM, first compound 1 µM): 85.9%
viability, T/C (second compound 0.316 µM, first compound 3.16 µM): 96.4%
viability, T/C (second compound 0.316 µM, first compound 10 µM): 106%
viability, T/C (second compound 1 µM, first compound 0.0316 µM): 94.9%
viability, T/C (second compound 1 µM, first compound 0.1 µM): 91.2%
viability, T/C (second compound 1 µM, first compound 0.316 µM): 94.8%
viability, T/C (second compound 1 µM, first compound 1 µM): 84.3%
viability, T/C (second compound 1 µM, first compound 3.16 µM): 84.1%
viability, T/C (second compound 1 µM, first compound 10 µM): 109%
viability, T/C (second compound 3.16 µM, first compound 0.0316 µM): 89.4%
viability, T/C (second compound 3.16 µM, first compound 0.1 µM): 94.9%
viability, T/C (second compound 3.16 µM, first compound 0.316 µM): 82.6%
viability, T/C (second compound 3.16 µM, first compound 1 µM): 90.7%
viability, T/C (second compound 3.16 µM, first compound 3.16 µM): 89.8%
viability, T/C (second compound 3.16 µM, first compound 10 µM): 111%
viability, T/C (second compound 10 µM, first compound 0.0316 µM): 77.3%
viability, T/C (second compound 10 µM, first compound 0.1 µM): 59.4%
viability, T/C (second compound 10 µM, first compound 0.316 µM): 79.2%
viability, T/C (second compound 10 µM, first compound 1 µM): 74.1%
viability, T/C (second compound 10 µM, first compound 3.16 µM): 92.1%
viability, T/C (second compound 10 µM, first compound 10 µM): 101%

IC50 (second compound 0.000949 µM): > 10 µM
IC50 (second compound 0.003 µM): > 10 µM
IC50 (second compound 0.00949 µM): > 10 µM
IC50 (second compound 0.03 µM): > 10 µM
IC50 (second compound 0.0949 µM): 9.05 µM
IC50 (second compound 0.3 µM): 8.98 µM
SMILES: NC1c2ccccc2OC12CCN(c1cnc3c(N4CCCc5ncccc54)n[nH]c3n1)CC2 (stereo unspecified) + CCn1c(-c2cccnc2C(C)OC)c2c3cc(ccc31)N1CCOC(CC(NC(=O)C(C(C)C)N(C)C(=O)C3(F)CCN(C(=O)C#CC(C)(C)N(C)C)CC3)C(=O)N3CCCC(N3)C(=O)OCC(C)(C)C2)C1
viability, T/C (second compound 0.000949 µM, first compound 0.0316 µM): 103%
viability, T/C (second compound 0.000949 µM, first compound 0.1 µM): 100%
viability, T/C (second compound 0.000949 µM, first compound 0.316 µM): 103%
viability, T/C (second compound 0.000949 µM, first compound 1 µM): 98.5%
viability, T/C (second compound 0.000949 µM, first compound 3.16 µM): 94.5%
viability, T/C (second compound 0.000949 µM, first compound 10 µM): 60.7%
viability, T/C (second compound 0.003 µM, first compound 0.0316 µM): 103%
viability, T/C (second compound 0.003 µM, first compound 0.1 µM): 96.5%
viability, T/C (second compound 0.003 µM, first compound 0.316 µM): 102%
viability, T/C (second compound 0.003 µM, first compound 1 µM): 97.7%
viability, T/C (second compound 0.003 µM, first compound 3.16 µM): 95.7%
viability, T/C (second compound 0.003 µM, first compound 10 µM): 58.5%
viability, T/C (second compound 0.00949 µM, first compound 0.0316 µM): 101%
viability, T/C (second compound 0.00949 µM, first compound 0.1 µM): 99.6%
viability, T/C (second compound 0.00949 µM, first compound 0.316 µM): 101%
viability, T/C (second compound 0.00949 µM, first compound 1 µM): 96.8%
viability, T/C (second compound 0.00949 µM, first compound 3.16 µM): 93.2%
viability, T/C (second compound 0.00949 µM, first compound 10 µM): 54.1%
viability, T/C (second compound 0.03 µM, first compound 0.0316 µM): 97.7%
viability, T/C (second compound 0.03 µM, first compound 0.1 µM): 96.9%
viability, T/C (second compound 0.03 µM, first compound 0.316 µM): 99.8%
viability, T/C (second compound 0.03 µM, first compound 1 µM): 99.7%
viability, T/C (second compound 0.03 µM, first compound 3.16 µM): 90.9%
viability, T/C (second compound 0.03 µM, first compound 10 µM): 54.2%
viability, T/C (second compound 0.0949 µM, first compound 0.0316 µM): 99.1%
viability, T/C (second compound 0.0949 µM, first compound 0.1 µM): 98.2%
viability, T/C (second compound 0.0949 µM, first compound 0.316 µM): 93.6%
viability, T/C (second compound 0.0949 µM, first compound 1 µM): 91.2%
viability, T/C (second compound 0.0949 µM, first compound 3.16 µM): 86.5%
viability, T/C (second compound 0.0949 µM, first compound 10 µM): 46.3%
viability, T/C (second compound 0.3 µM, first compound 0.0316 µM): 95.7%
viability, T/C (second compound 0.3 µM, first compound 0.1 µM): 99.6%
viability, T/C (second compound 0.3 µM, first compound 0.316 µM): 99.5%
viability, T/C (second compound 0.3 µM, first compound 1 µM): 93.2%
viability, T/C (second compound 0.3 µM, first compound 3.16 µM): 76.8%
viability, T/C (second compound 0.3 µM, first compound 10 µM): 47.2%
